Data reported in patent publication US20180147256A1, “MEANS AND METHODS FOR TREATING FACIOSCAPULOHUMERAL MUSCULAR DYSTROPHY (FSHD)” (ACADEMISCH ZIEKENHUIS LEIDEN H.O.D.N. LUMC, priority 2015, published 2018).

System: DUX4
Experiment: DUX4 transcript levels in FSHD primary muscle cell cultures treated with PR-619
Assay type: cell-based
Conditions: DUX4 expressing human primary FSHD myoblasts; 5 μM, 10 μM and 20 μM
Description: To further confirm the hypothesis that sumoylation is relevant for repression of DUX4, PR619 was used as inhibitor for the removal of SUMO substrates from their proteins. PR619 is a non-selective inhibitor of deubiquitinases and ubiquitin-like isopeptidases (like the family of SENP isopeptidases). […] DUX4 expressing human primary FSHD myoblasts were treated with 3 different concentrations of PR619 (5 μM, 10 μM and 20 μM) and cells were harvested for RNA isolation. […] Thus PR619 treatment of DUX4 expressing primary FSHD myotubes leads to DUX4 downregulation.
Human primary myoblast cell lines were originating from the University of Rochester bio repository (http://www.urmc.rochester.edu/fields-center/). Muscle samples were obtained after subjects were consented under a protocol approved by the institutional review board at the University of Rochester. […]
Myoblast and myotube samples were harvested for RNA isolation by adding QIAzol lysis reagent (#79306 Qiagen N.V., Venlo, The Netherlands). […] Gene specific cDNA products were quantified by qPCR in duplicate using SYBR green master mix supplemented with gene specific primers (table S2) using the CFX96 system (Bio-Rad, Veenendaal, The Netherlands). Data were analyzed by Bio-Rad CFX manager version 3.0 (Bio-Rad) using GAPDH and GUSB as reference genes.

## N#CSc1cc(SC#N)c(N)nc1N [PR-619, 2,6-Diamino-3,5-dithiocyanopyridine]
  DUX4 transcript levels: decreased in cells treated with PR-619 in a dose dependent manner
